Reference: patent US8614250B2 (Industry-Academic Cooperation Foundation, Yonsei University, priority 2011, dated 2013)
Marks after values point to notes of the source that are not given here.

Key:
[1] = Body weight gain, food intake and visceral fat-pad weights in mice fed high-fat diet supplemented with adipic acid; type: in vivo, C57BL/6J mice; settings: 0.2% adipic acid in high-fat diet, 10 weeks
Excerpt: (§1) The obesity-inducing control diet used in the test was high-fat diet (HFD: 40% fat calorie, 17 g lard+3% corn oil/100 g diet). […] The normal diet group (Chow) was fed with commercially available rodent chow.
(§2) 5-week-old male C57BL/6J mice (Orient, Korea) were accustomed to the laboratory environment for 1 week while feeding solid feed. Then, they were randomly divided into normal diet, high-fat diet and test groups and bred for a total of 10 weeks. The diet was given between 10 and 11 a.m. every day together with water. Food intake was measured every day and body weight was measured once a week. In order to avoid transient body weight increase after feed intake, body weight was measured 2 hours after removing the feed. After fasting the test animal for at least 12 hours and anesthetizing with diethyl ether, blood, liver and visceral fat (epididymal fat, perirenal fat, mesenteric fat and retroperitoneal fat) were taken and weighed after washing with 0.1 M PBS (pH 7.4). Blood taken from the abdominal aorta was centrifuged at 1000×g for 15 minutes for the separation of plasma.

[2] = Biochemical analysis of blood (plasma lipids, glucose, ALT, AST) in mice fed test diets; type: in vivo, C57BL/6J mice; settings: 10 weeks
Excerpt: as §1, §2
After 10 weeks of breeding, total cholesterol, triglyceride and glucose levels in the plasma and lipid levels in the liver tissue were measured as follows. Total cholesterol, triglyceride, free fatty acid and glucose levels in the plasma were measured twice for each using a commercially available kit (Bio Clinical System). The activity of ALT (alanine aminotransferase) and AST (aspartate aminotransferase) used as liver function indicator were measured twice for each using a commercially available kit (Bio Clinical System, Korea).

[3] = Liver weight and lipid level in liver tissues of mice fed test diets; type: in vivo, C57BL/6J mice; settings: 10 weeks
Excerpt: as §1, §2
Lipids were extracted from the liver tissue according to Folch et al.'s method Folch J et al., J Biol Chem. 226: 497-509 (1957)). After adding 1 mL of distilled water to 0.25 g of liver tissue, the liver tissue was homogenized using a Polytron homogenizer (IKA-Werke GmbH & Co., Ultra-Turrax, Staufen, Germany). After adding 5 mL of chloroform:methanol solution (2:1, v/v) to the homogenate and mixing well, the mixture was centrifuged at 1000×g for 10 minutes. After adding 2 mL of chloroform:methanol solution (2:1, v/v) again to the supernatant, the same procedure was repeated to completely separate the lipid components of the liver. After adding 3 mL of chloroform:methanol:0.05% CaCl2 (3:48:47, v/v/v) solution to the remaining pellets and mixing well for 1 minute, followed by centrifugation at 1000×g for 10 minutes, the resulting pellets were completely dried with nitrogen gas. The dried lipids were dissolved in 1 mL of methanol and then analyzed.
The same kit (Bio Clinical System) as that used for the plasma analysis was used to measure the triglyceride and cholesterol levels of the liver tissue.

C/EBPα gene expression = assay: RT-PCR analysis of visceral fat tissues; type: in vivo, C57BL/6J mice; settings: mRNA, versus HFD
Procedure: (§3) After adding 1 mL of Trizol agent per 0.1 g of visceral fat tissues, the mixture was homogenized and centrifuged at 12,000×g for 10 min at 4° C. The supernatant was transferred to a new tube and 200 μl of chloroform was added to the tube, followed by vortexing. The same procedure was repeated twice and then the supernatant was transferred to a new tube, followed by addition of isopropanol and the supernatant at 1:1 ratio. The mixture was vigorously shaken 10 times and then incubated for 10 min at room temperature, followed by centrifugation at 12,000×g for 10 min at 4° C. to remove the supernatant. After adding 1 mL of 70% ethanol to the remaining pellet, it was centrifuged at 7,500×g for 5 min at 4° C. After removing the ethanol, the RNA pellet contained in the tube was dried for 5 min at 4° C. and dissolved in nuclease-free water. The RNA sample concentration was measured at a wavelength of 260 nm and 280 nm using a UV/VIS spectrophotometer (Beckman coulter, DU730) and the integrity of RNA sample was verified by agarose gel electrophoresis.
(§4) The RNA sample obtained from the visceral fat tissues was transcribed using oligo dT primer and SuperScript reverse transcriptase (GIBCO BRL, Gaithersburg, Md., USA) to synthesize cDNA. The PCR amplification was performed using the cDNA as templates and primers complementary to cDNA 5′ and 3′ flanking sequence. The amplified products were resolved on agarose gel electrophoresis.

IL-6 gene expression = assay: RT-PCR analysis of visceral fat tissues; type: in vivo, C57BL/6J mice; settings: mRNA
Procedure: as §3, §4

PPARγ2 gene expression = assay: RT-PCR analysis of visceral fat tissues; type: in vivo, C57BL/6J mice; settings: mRNA, versus HFD
Procedure: as §3, §4

TNF-α gene expression = assay: RT-PCR analysis of visceral fat tissues; type: in vivo, C57BL/6J mice; settings: mRNA
Procedure: as §3, §4

aP2 gene expression = assay: RT-PCR analysis of visceral fat tissues; type: in vivo, C57BL/6J mice; settings: mRNA, versus HFD
Procedure: as §3, §4

[4] = rat; ketosis caused by long-chain and short-chain monocarboxylic acids; cited from earlier work
[5] = patients treated for 8 weeks; cited from earlier work

For `O=C(O)CCCCC(=O)O` [adipic acid], the daily food intake [1] was “no significant change”, the “decrease of body weight gain as compared to HFD” value [1] was 49% and the “epididymal fat-pad weight as compared to HFD” value [1] was “significantly reduced”. For the same molecule, the “mesenteric fat-pad weight as compared to HFD” value [1] was “significantly reduced”, the “perirenal fat-pad weight as compared to HFD” value [1] was “significantly reduced” and the “reduction of total visceral fat weight as compared to HFD” value [1] was 21%. For the same molecule, the “retroperitoneal fat-pad weight as compared to HFD” value [1] was “significantly reduced”, the “decrease of plasma ALT activity as compared to HFD” value [2] was 40% and the “decrease of plasma AST activity as compared to HFD” value [2] was 27%. The “lower plasma free fatty acid level as compared to HFD” value [2] was 32%, the “lower plasma total cholesterol level as compared to HFD” value [2] was 24% and the “lower plasma triglyceride level as compared to HFD” value [2] was 26%. For the same molecule, the “reduction of fasting blood sugar level as compared to HFD” value [2] was 25%, the ALT ([2]; plasma, mean ± SEM) was 7.9 ± 0.78^c IU/L and the AST ([2]; plasma, mean ± SEM) was 8.9 ± 0.28^b IU/L. The Free fatty acid ([2]; plasma, mean ± SEM) was 890 ± 56^c uEq/L, the Total cholesterol ([2]; plasma, mean ± SEM) was 2.66 ± 0.41^b mmol/L and the Triglyceride ([2]; plasma, mean ± SEM) was 0.89 ± 0.05^b mmol/L. For the same molecule, the Glucose ([2]; plasma, fasted, mean ± SEM) was 6.6 ± 0.41^b mmol/L, the “decrease of cholesterol level in liver tissue as compared to HFD” value [3] was 44% and the “decrease of free fatty acid level in liver tissue as compared to HFD” value [3] was 37%. For the same molecule, the “decrease of triglyceride level in liver tissue as compared to HFD” value [3] was 26%, the “reduction of liver absolute weight as compared to HFD” value [3] was 12% and the “expression of C/EBPα gene” value (C/EBPα gene expression) was “significantly decreased”. The “HFD-induced elevation in the expression of IL-6” value (IL-6 gene expression) was “significantly reversed”, the “expression of PPARγ2 gene” value (PPARγ2 gene expression) was “significantly decreased” and the “HFD-induced elevation in the expression of TNF-α” value (TNF-α gene expression) was “significantly reversed”. For the same molecule, the “expression of aP2 gene” value (aP2 gene expression) was “significantly decreased” and the effect on ketosis [4] was “effective for improving ketosis”.
In the case of `CCOC(=O)C1=C(COCCN)NC(C)=C(C(=O)OC)C1c1ccccc1Cl.O=C(O)CCCCC(=O)O` (stereo not drawn) [amlodipine adipate], the symptoms of hypertension [5] is given as “alleviated symptoms of hypertension”.
